US6916797B2, “α-arylethylpiperazine derivatives as neurokinin antagonists” (UCB, S.A., priority 2000, dated 2005)

What was measured:
[1] = test system: isolated rat aorta contracted by 100 mM KCl; test: Effect of compound on isolated rat aorta contracted by 100 mM KCl; details: 10^−5 M; contraction by 100 mM KCl
Experimental: Rat thoracic aorta depolarized by 100 mM KCl develops a contraction induced by an influx of Ca^2+ into the smooth muscle cell. An inhibition of this contraction could predict a Ca^2+ antagonist activity.
The method was adapted from Polster P. et al., J. Pharmacol. Exp. Ther. (1990), 255, 593: rings of thoracic aorta were prepared from male Wistar rats (250-400 g) and mounted under an optimal resting tension of 2 g in 10 ml organ baths containing modified Krebs' solution (NaCl 112 mM, NaHCO3 25 mM, KCl 5 mM, MgSO4 1.2 mM, CaCl2 2.5 mM, KH2PO4 1 mM and glucose 11.5 mM, pH 7.4). The bathing solution was maintained at a temperature of 37° C. and gassed with 95% O2 and 5% CO2. Isometric contractions were measured with a force transducer connected to an amplifier. A computer system was used to control data acquisition and fluid circulation through electrovalves. Drugs were manually injected into the bath.
Each ring was allowed to equilibrate for 60 min in the modified Krebs' solution. […] After obtaining two reproducible control contractions, a 3rd contraction was induced and the test compound was added to the bathing medium for 2 hours. Only preparation in which the contractions were matched were used. Each tissue received only one concentration of the test compound. Appropriate control experiments were conducted in order to test the effect of the solvant.
To normalize data, the change in tension due to the drug was compared to the change of tension due to the solvant and expressed as percentage of the induced relaxation of the initial contraction. Raw data were processed by a computer system and the pD′2 value was calculated following the method of Van Rossum J. M. et al., Arch. Int. Pharmacodyn. Ther. (1963), 143, 299.

[2] = test system: verapamil binding site of the L-type calcium channel; test: Inhibition of [3H]D888 binding to the verapamil binding site of the L-type calcium channel (rat cerebral cortex membranes); details: 10 μmol/l of test substance
Experimental: 200-250 g male Sprague-Dawley rats are sacrificed by decapitation. Cerebral cortices are quickly dissected on ice and homogenized in a 20 mmol/l Tris-HCl (pH 7.4) buffer containing 250 mmol/l sucrose (buffer A). The homogenate is centrifuged at 30,000 g for 15 min at 4° C. The resulting crude membrane pellet is resuspended in a 50 mmol/l Tris-HCl (pH 7.4) buffer and incubated 15 min at 37° C. before being centrifuged at 30,000×g for 15 min at 4° C. After two more washes under the same conditions, the final pellet is resuspended in buffer A at a protein concentration ranging from 15 to 25 mg/ml and stored in liquid nitrogen.
Binding experiments are essentially performed according to Reynolds J. et al., J. Pharmacol. Exp. Ther. (1986), 237, 731-738. (1986) with slight modifications.
Membranes (120-175 μg/assay) are incubated at 25° C. for 60 min in 0.5 ml of a 50 mmol/l Tris-HCl buffer (pH 7.4) containing 2 mmol/l MgCl2, 0.2 to 0.4×10-9 mol/l of [^3H]D888 (85 Ci/mmol; Amersham, Belgium) and 10 μmol/l of the test substance. The non specific binding (NSB) is defined as the residual binding observed in the presence 10 μM verapamil. Membrane-bound and -free radioligands are separated by rapid filtration through glass fiber filters (equivalent to Whatman GF/C or GF/B; VEL, Belgium) presoaked in 0.1% polyethyleneimine to reduce non specific binding. Samples and filters are rinsed by at least 6 ml of 50 mmol/l Tris-HCl (pH 7.4) buffer. […] The radioactivity trapped onto the filters is counted by liquid scintillation in a β-counter.
The inhibition of the radioligand specific binding is calculated as follows: [formula] • where BI and Bo represent the binding observed in the presence and absence of the test substance respectively; and • BNS is the non specific binding.
Data analysis is performed by a computerized non linear curve fitting method using a set of equations describing several binding models assuming competitive interactions between ligands (Weiland G. A. and P. B. Molinoff Life Science (1981), 29, 313-330; Molinoff P. et al. (1981) Life Sci., 29, 427-443).

[3] = biological target: NK1 receptors (Homo sapiens, UniProt P25103); test: Binding of [4,5-3H-Leu10] substance P to human recombinant NK1 receptors expressed in CHO cell membranes; design: host or cells: CHO cells; details: pIC50 = -log IC50, concentration inhibiting by 50% the specific binding of [4,5-3H] substance P; tested as the free base/salt given in c1
Chain of NK1 receptors (P25103 whole entry): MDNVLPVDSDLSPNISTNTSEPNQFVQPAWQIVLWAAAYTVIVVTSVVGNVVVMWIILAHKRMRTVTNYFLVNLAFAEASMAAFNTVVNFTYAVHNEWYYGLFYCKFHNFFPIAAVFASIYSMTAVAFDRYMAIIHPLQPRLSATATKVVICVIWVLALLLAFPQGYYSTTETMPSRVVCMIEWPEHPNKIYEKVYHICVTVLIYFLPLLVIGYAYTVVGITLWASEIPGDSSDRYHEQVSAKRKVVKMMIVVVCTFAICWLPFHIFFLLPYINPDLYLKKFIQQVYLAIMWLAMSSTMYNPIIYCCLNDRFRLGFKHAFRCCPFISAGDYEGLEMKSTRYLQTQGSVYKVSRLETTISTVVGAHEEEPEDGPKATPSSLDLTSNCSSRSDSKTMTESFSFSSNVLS
Experimental: The following test was designed to assess the affinity of test substances for human recombinant NK1 receptors expressed in Chinese Hamster Ovarian (CHO) cells.
CHO cells expressing the human recombinant NK1 receptor are used. The cells were obtained from Euroscreen (Brussels, Belgium).
Cells expressing the human NK1 receptor are routinely cultured in 175 cm2 flasks containing 75 ml of medium F12 (Ham) enriched with 2 mmol/l L-glutamine, 100 IU/ml penicilline, 100 μg/ml streptomycine, 1% sodium pyruvate, 2.5 μg/ml fungizone amphotericin B, 400 μg/ml geneticin and supplemented with 10% foetal calf serum. […] When subcultured, the cells are seeded at a concentration of 50,000 cells/cm2.
Confluent cells are gently scraped and resuspended in 25 ml of phosphate buffered saline without calcium and magnesium. The cellular suspension is centrifuged at 1500×g for 3 min (4° C.). The cell pellet is homogenized in a 15 mmol/l Tris-HCl (pH 7.5) buffer, 2 mmol/l MgCl2, 0.3 mmol/l EDTA, 1 mmol/l EGTA. The crude membrane fraction is collected by two consecutive centrifugation steps at 40,000×g for 25 min (4° C.). The final pellet is resuspended in 20 mmol/l Tris-HCl (pH 7.4), 250 mmol/l sucrose buffer at a protein concentration ranging from 2 to 6 mg/ml and stored in liquid nitrogen. • 1.2.2. Test Design
The inhibition constant (Ki) is determined using increasing concentrations of the test substance. The concentration range usually encompasses 6 log units with variable steps (0.3 to 1 log). Assays are performed in mono- or duplicate.
Membranes are incubated at 25° C. for 60 min in 0.5 ml of a 50 mmol/l Tris-HCl buffer (pH 7.4) containing 2 mmol/l MgCl2, 100 μg/ml bacitracine, 0.1 to 0.4×10^−9 mol/l of [4,5^3H-Leu^10] substance P (specific activity>100 Ci/mmol) and increasing concentrations of the test substance. […] Membrane-bound and free radioligands are separated by rapid filtration through glass fiber filters (equivalent to Whatman GF/C or GF/B; VEL, Belgium) presoaked in 0.1% polyethyleneimine to reduce non specific binding. Samples and filters are rinsed by at least 6 ml of 50 mmol/l Tris-HCl (pH 7.4) buffer.
Initial values for the different variables may be provided by the experimenter.

Row | SMILES | Result: effect of compound on isolated rat aorta contracted by 100 mM KCl [1] | % inhibition of [3H]D888 binding to the verapamil binding site of the L-type calcium channel [2] | IC50 [3] [µM]
1 | O=S(=O)(O)CCCN1CCN(C(COCc2cc(C(F)(F)F)cc(C(F)(F)F)c2)c2ccccc2)CC1 (racemic) [Compound 160] | inactive à 10^−5 M | 0 (0: inhibition < 20%) | 0.0316
2 | O=C(O)CN1CCN(C(COCc2cc(C(F)(F)F)cc(C(F)(F)F)c2)c2ccccc2)CC1 (racemic) [Compound 229, {4-[2-(3,5-Bis-trifluoromethyl-benzyloxy)-1-phenyl-ethyl]-piperazin-1-yl}-acetic acid] | inactive à 10^−5 M | 0 (0: inhibition < 20%) | 0.0794
3 | O=C(O)CCCN1CCN(C(COCc2cc(C(F)(F)F)cc(C(F)(F)F)c2)c2ccccc2)CC1 (racemic) [Compound 232] | inactive à 10^−5 M | + (+: inhibition comprised between 20 and 50%) | 0.0501
4 | O=C(O)CCCCN1CCN(C(COCc2cc(C(F)(F)F)cc(C(F)(F)F)c2)c2ccccc2)CC1 (racemic) [Compound 233, 5-{4-[2-(3,5-Bis-trifluoromethyl-benzyloxy)-1-phenyl-ethyl]-piperazin-1-yl}-pentanoic acid] | inactive à 10^−5 M | 0 (0: inhibition < 20%) | 0.0316
5 | O=C(O)COCCN1CCN(C(COCc2cc(C(F)(F)F)cc(C(F)(F)F)c2)c2ccccc2)CC1 (racemic) [Compound 235, (2-{4-[2-(3,5-Bis-trifluoromethyl-benzyloxy)-1-phenyl-ethyl]-piperazin-1-yl}-ethoxy)-acetic acid] | inactive à 10^−5 M | 0 (0: inhibition < 20%) | 0.0631
6 | O=C(O)CN1CCN([C@H](COCc2cc(C(F)(F)F)cc(C(F)(F)F)c2)c2ccccc2)CC1 [Compound 230] | inactive à 10^−5 M | 0 (0: inhibition < 20%) | 0.0501
7 | O=C(O)COCCN1CCN([C@H](COCc2cc(C(F)(F)F)cc(C(F)(F)F)c2)c2ccccc2)CC1 [Compound 236] | inactive à 10^−5 M | 0 (0: inhibition < 20%) | 0.0794
8 | O=C(O)COCCN1CCN([C@@H](COCc2cc(C(F)(F)F)cc(C(F)(F)F)c2)c2ccccc2)CC1 [Compound 237] | inactive à 10^−5 M | 0 (0: inhibition < 20%) | 
9 | O=C(O)c1ccc(CN2CCN([C@H](COCc3cc(C(F)(F)F)cc(C(F)(F)F)c3)c3ccccc3)CC2)cc1 [Compound 243] | inactive à 10^−5 M | 0 (0: inhibition < 20%) | 0.0631
10 | C[C@@H](OC[C@@H](c1ccccc1)N1CCN(CCOCC(=O)O)CC1)c1cc(C(F)(F)F)cc(C(F)(F)F)c1 [Compound 281] | inactive à 10^−5 M | + (+: inhibition comprised between 20 and 50%) | 
11 | CC(C)COC(=O)COCCN1CCN(C(COCc2cc(C(F)(F)F)cc(C(F)(F)F)c2)c2ccccc2)CC1 (stereo not shown) [Compound 287, (2-{4-[2-(3,5-Bis-trifluoromethyl-benzyloxy)-1-phenyl-ethyl]-piperazin-1-yl}-ethoxy)-acetic acid isobutyl ester] | inactive à 10^−5 M | + (+: inhibition comprised between 20 and 50%) | 0.0316
12 | O=c1[nH]nc(CN2CCN(C(COCc3cc(C(F)(F)F)cc(C(F)(F)F)c3)c3ccccc3)CC2)[nH]1 (stereo not shown) [Compound 295, 5-{4-[2-(3,5-Bis-trifluoromethyl-benzyloxy)-1-phenyl-ethyl]-piperazin-1-ylmethyl}-2,4-dihydro-[1,2,4]triazol-3-one] | inactive à 10^−5 M | − + (+: inhibition comprised between 20 and 50%) | 0.0631
13 | FC(F)(F)c1cc(COCC(c2ccccc2)N2CCN(CCCCc3nnn[nH]3)CC2)cc(C(F)(F)F)c1 (stereo not shown) [Compound 297] | inactive à 10^−5 M | + (+: inhibition comprised between 20 and 50%) | 0.02
14 | FC(F)(F)c1cc(COC[C@H](c2ccccc2)N2CCN(CCCCc3nnn[nH]3)CC2)cc(C(F)(F)F)c1 [Compound 298, (S)-1-[2-(3,5-Bis-trifluoromethyl-benzyloxy)-1-phenyl-ethyl]-4-[4-(1H-tetrazol-5-yl)-butyl]-piperazine] | inactive à 10^−5 M | + (+: inhibition comprised between 20 and 50%) | 0.0158
